Assay results from patent publication US7063959B1, “Compositions of the SOC/CRAC calcium channel protein family” (priority 1998, dated 2006).

Test system: SOC/CRAC calcium channel
Experiment: Pharmacologic behavior of SOC/CRAC: calcium influx elicited by store depletion (fura-2) in SOC/CRAC-expressing cells
Format: cell-based
Conditions: SOC/CRAC expressed in RBL-2H3 mast cells by recombinant vaccinia virus; stores depleted with thapsigargin; cells pre-incubated with reagent; effect substantially the same as on endogenous thapsigargin-dependent calcium influx

SMILES: CCCCCCCCCCCCC/C=C/[C@@H](O)[C@@H](N)CO [sphingosine, Sphingosine]
- SOC/CRAC-enhanced calcium influx: inhibited
